The source of these data is publication PMC12250605, “Recombinant Expression and Characterization of a Novel Type I Baeyer–Villiger Monooxygenase from a Streptomyces Strain Isolated from the Rhizosphere of the Atacama Desert Lupinus oreophilus” (International Journal of Molecular Sciences, 2025).

The test system of the experiment is T1, MO-G35A.
T1 construct: full-length, C-terminal His6 tag kept, codon-optimised gene; pET-28a (cytoplasmic) or pET-22b (pelB, periplasmic), E. coli NiCo21(DE3) or Shuffle T7; 73 kDa
Briefly: NADPH consumption at […] nm, sigmoidal fit. It counts as biochemical, Streptomyces sp. G35A. Conditions: Tris-HCl pH 7.5, 30 °C (methods) or 35 °C (results), allosteric sigmoidal fit.

For orientation: Km means the substrate concentration at which the rate is half of its maximum. As for `O=C1CC2C=CCC12` (centres unmarked) [BHC, bicyclo [3.2.0] hept-2-en-6-one], under “200 µM NADPH”, the Km was determined as 60 µM. Consider `NC(=O)C1=CN([C@@H]2O[C@H](COP(=O)(O)OP(=O)(O)OC[C@H]3O[C@@H](n4cnc5c(N)ncnc54)[C@H](OP(=O)(O)O)[C@@H]3O)[C@@H](O)[C@H]2O)C=CC1` [NADPH], for which the Km (5 mM BHC) was 23.8 µM.
